One may read the IC50 as the midpoint of a concentration-inhibition curve.

In article PMC7059089, “Bioguided Isolation and Structure Identification of Acetylcholinesterase Enzyme Inhibitors from Drynariae Rhizome” (Journal of Analytical Methods in Chemistry, 2020) one finds IC50 data, which are given here for 7 molecules.

The target in this test is T1, AChE (acetylcholinesterase) (Electrophorus electricus, UniProt O42275).
T1 construct: obtained from the head of an electric eel; purchased Shanghai Source Biotech Co. Ltd. (Shanghai, China); host or cells: electric eel tissue (head)
T1 sequence (O42275 24-633): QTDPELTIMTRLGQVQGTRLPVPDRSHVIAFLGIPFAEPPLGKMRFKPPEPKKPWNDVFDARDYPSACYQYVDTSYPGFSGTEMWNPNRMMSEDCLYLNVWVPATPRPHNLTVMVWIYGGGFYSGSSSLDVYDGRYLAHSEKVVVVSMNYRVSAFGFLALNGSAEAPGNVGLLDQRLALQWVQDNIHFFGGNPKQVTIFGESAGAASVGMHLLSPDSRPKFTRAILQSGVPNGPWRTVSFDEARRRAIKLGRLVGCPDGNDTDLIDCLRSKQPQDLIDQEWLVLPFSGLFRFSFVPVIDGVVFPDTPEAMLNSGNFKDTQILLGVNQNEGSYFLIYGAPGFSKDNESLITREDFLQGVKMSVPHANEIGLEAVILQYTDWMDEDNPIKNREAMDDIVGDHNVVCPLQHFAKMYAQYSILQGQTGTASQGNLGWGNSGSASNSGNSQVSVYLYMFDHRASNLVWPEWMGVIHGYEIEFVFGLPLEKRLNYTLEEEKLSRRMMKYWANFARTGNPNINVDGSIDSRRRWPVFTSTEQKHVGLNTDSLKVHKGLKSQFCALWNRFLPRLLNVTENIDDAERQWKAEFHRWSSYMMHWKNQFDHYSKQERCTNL
Nature of the test: biochemical. To be noted: UPLC-MS/MS assay, ACh-I substrate, 37°C, 25 min, pH 8.0, n = 6, ± SD; read-out: IC50 against AChE. An excerpt:
AChE (acetylcholinesterase, obtained from the head of an electric eel, 500 U), iodized acetylcholine (ACh-I, purity > 98.0%), iodized choline (Ch-I, purity > 98.0%), and Tris-HCl buffer (1 mol/L, pH 8.0) were all purchased from Shanghai Source Biotech Co. Ltd. (Shanghai, China). […] UPLC-grade acetonitrile was obtained from Fisher (Fair Lawn, NJ, USA). Water was purified by redistillation and a Milli-Q® ultrapure water system (Millipore, Bedford, MA, USA). Other chemicals and solvents used were of analytical grade.
AChE inhibition activities of the analytes were determined in vitro by monitoring the transformation from a substrate (ACh-I) to the product (Ch-I) catalyzed AChE, and Ch-I was quantified with UPLC-MS/MS to access the AChE activity. The reaction was conducted in a 100 μL mixture, consisting of 50 μL AChE solution (0.5 U/mL), 45 μL ACh-I solution (400 μg/mL), and 5 μL tested sample or blank Tris solution which were all dissolved in Tris buffer (pH 8.0). The mixture was incubated at 37°C in a thermostatic water bath for 25 min and then terminated by 500 μL acetonitrile at 0°C immediately. The terminal solution was centrifuged at 20,000g for 15 min, and the supernatant was used for UPLC-MS/MS analysis.
The […] inhibition was calculated as follows:(1) inhibition %=Cb−Cs/Cb∗100%. where Cb means the Ch-I concentration incubated without AChE inhibitor and Cs means the Ch-I concentration incubated with inhibitor. The inhibitory activities of the AChE inhibitors were assessed by the IC50 values of tested compounds. Galanthamine was selected as a positive control.
Liquid chromatography analysis was accomplished on an ACQUITY UPLC™ system (Waters Corp., Milford, MA, USA). The chromatographic separation was carried out using an ACQUITY UPLCTM BEH C18 column (2.1 × 50 mm, 1.7 μm) at 30°C. The isocratic elution mobile phase consisted of 0.5% acetic acid (A) and acetonitrile (B) (40 : 60) to guarantee the peak shape of Ch-I.
A Waters® Micromass® Quattro Premier™ XE triple-quadrupole tandem mass spectrometer equipped with an electrospray ionization interface (TQ-ESI) was used for mass spectrometric detection. The positive ESI source operation optimal parameters were capillary voltage 3.0 kV, extractor voltage 3.00 V, skimmer 25.0 V, fragmentor 35 V, octopole Rf peak 3000 v, source temperature 120°C, and desolvation temperature 300°C. Nitrogen was used as the desolvation gas and cone gas at a flow of 600 L/h and 50 L/h, respectively. Argon was used as the collision gas at a pressure of approximately 2.61 × 10^−3 mbar. A multiple reaction monitoring (MRM) mode was used to quantify Ch-I, and the fragments of 104.34 Th and 58.53 Th were selected as the parent ion and daughter ion to obtain accurate quantitation in the mixture containing herb extract. The MS scan rate spectrum was 5000 amu/s, dwell time 5 ms, and m/z range 0–300 Th. All data were acquired and analyzed by Mass Lynx™ NT 4.1 software with the Quan Lynx™ program (Waters, Milford, MA, USA).
The reaction procedure was conducted with reference to Liu's report; moreover, the enzyme constants, steady-state kinetics, reaction temperature, reaction time, substrate concentration, and AChE concentration were investigated and optimized to guarantee the utilization. […] The concentration of AChE in Liu's report was 3.470 U/mL.
Take `O=c1c(O[C@@H]2O[C@H](CO)[C@@H](O)[C@H](O)[C@H]2O)c(-c2ccc(O)cc2)oc2cc(O)cc(O)c12` [Astragalin, astragalin]: the IC50 came to 18.2 ± 2.33 µM. On to `O=C1C[C@@H](c2ccc(O)c(O)c2)Oc2cc(O)cc(O)c21` [Eriodictyol, eriodictyol], for which the 50% inhibitory concentration (IC50) was found to be 7.19 ± 0.62 µM. In the case of `O=c1cc(-c2ccc(O)c(O)c2)oc2cc(O)cc(O)c12` [Luteolin, luteolin], the IC50 amounted to 17.3 ± 0.23 µM. As to `O=c1cc(-c2ccc(O)c(O)c2)oc2cc(O[C@@H]3O[C@H](CO)[C@H](O)[C@H](O)[C@H]3O)cc(O)c12` [Luteolin-7-O-β-D-glucoside, luteolin-7-O-β-D-glucoside], the half-maximal inhibitory concentration (IC50) was determined as 17.1 ± 1.02 µM. As to `O=C1C[C@@H](c2ccc(O)cc2)Oc2cc(O)cc(O)c21` [Naringenin, naringenin], the IC50 was determined as 3.81 ± 0.21 µM. On to `C[C@@H]1O[C@@H](O[C@H]2[C@H](Oc3cc(O)c4c(c3)O[C@H](c3ccc(O)cc3)CC4=O)O[C@H](CO)[C@@H](O)[C@@H]2O)[C@H](O)[C@H](O)[C@H]1O` [Naringin, naringin], for which the IC50 is 26.4 ± 1.17 µM. Regarding `C[C@@H]1O[C@@H](O[C@H]2[C@H](Oc3cc(O)c4c(c3)O[C@H](c3ccc(O)c(O)c3)CC4=O)O[C@H](CO)[C@@H](O)[C@@H]2O)[C@H](O)[C@H](O)[C@H]1O` [Neoeriocitrin, neoeriocitrin], the 50% inhibitory concentration (IC50) turned out to be 22.5 ± 1.25 µM.
